# Laboratory results reported in US10882845B2, “Crystal form of deuterated AZD9291, preparation method therefor, and use thereof” (TYK MEDICINES INC., priority 2017, dated 2021).
# Where a name gives a salt, the structure may show the parent alone.
# Legend:
# [1] = Passage through the blood-brain barrier into the brain; type: in vivo; conditions: in the body
# Excerpt: At present, some deuterated AZD9291 compounds have been reported in CN104140418B and CN105237515A, but no crystal forms of the pharmaceutically acceptable salt of deuterated AZD9291 have been reported. A crystal form is a solid state of a drug. The study of the drug crystal form is the study of the basic state of the drug. It is impossible to find a crystal form of a drug (solid material) that is more suitable for treating the disease, unless having a full and comprehensive understanding of the crystal form of the chemical drug. The crystal form of a drug can affect physical and chemical properties of the drug, and directly affect the clinical basis of the drug to play a role in the treatment of disease. At the same time, due to the solubility of some drugs, such drugs shall be made into a pharmaceutically acceptable salt, which can greatly improve its solubility and improve the absorption and utilization of drugs. The applicant has been engaged in the research of drugs for lung cancer, started drug research on EGFR targets very early, and has obtained a series of research results6, such as patent applications CN102659692, U.S. Ser. No. 08/916,572, CN107382879, WO2017219500 and WO2018050052. […] Therefore, it has no effect on tumors metastasized to the brain. […]
# in vivo = conditions: rat, po
# Excerpt: Moreover, a single impurity is below 0.1%, which is in line with requirements for the development of API and CMC.
# The high bioavailability of oral administration proves that this crystal form is suitable for the development of oral preparations.
# [2] = Stability at room temperature; type: physicochemical; conditions: for Purity (HPLC) / character (visual inspection) / hygroscopicity (visual inspection): room temperature
# Excerpt: The crystal form of the compound of the formula (I) or the formula (II) obtained by the method 1 or the method 2 of the present invention is not changed in moisture absorption or the like after being left at room temperature for 1 month. […] Its purity was as high as 99.83%, and the content of each single impurity was below 0.1%, which was suitable for the subsequent development of active pharmaceutical ingredient and preparations as well as subsequent pharmacokinetic experiments and zoological experiments.
# The crystal form of deuterated AZD9291 mesylate prepared in the present invention was placed in a laboratory at room temperature, and the stability at room temperature was examined.
# [3] = Accelerated stability test (drug accelerated stability test chamber, 40° C., relative humidity 75%); type: physicochemical; conditions: 75% RH
# [4] = as above; type: physicochemical; conditions: 75% RH; remark: listed apart in the source
# Experimental: The stability of the crystal form of the compound represented by the formula (I) or the formula (II) was further measured, and the apparatus used was a drug accelerated stability test chamber; the accelerated test condition was 40° C., and the relative humidity was 75%. After an accelerated test for six months in the drug accelerated stability test chamber was completed, a sample of the crystal form of the compound of the formula (I) or the formula (II) was obtained and subjected to X-ray powder diffraction analysis, and the obtained X-ray powder diffraction pattern was as shown in FIG. 2.
smiles,measurement,setting,value
C=CC(=O)Nc1cc(Nc2nccc(-c3c[nH]c4ccccc34)n2)c(OC)cc1N(C)CCN(C)C [AZ5104],passage through the blood-brain barrier,[1],cannot pass through the blood-brain barrier
[2H]C([2H])([2H])n1cc(-c2ccnc(Nc3cc(NC(=O)C=C)c(N(C)CCN(C)C)cc3OC)n2)c2ccccc21 [deuterated AZD9291 mesylate crystal form],AUC,in vivo,1270 ng·h/mL
same,bioavailability,in vivo,30.9%
same,highest blood concentration,in vivo,117 ng/mL
same,change in moisture absorption or the like,[2]; left at room temperature for 1 month,not changed
same,Purity (HPLC),[2]; day 0,99.73%
same,character (visual inspection),[2]; day 0,off-white powder
same,Purity (HPLC),[2]; day 15,99.70%
same,character (visual inspection),[2]; day 15,off-white powder
same,hygroscopicity (visual inspection),[2]; day 15,(no hygroscopicity)
same,Purity (HPLC),[2]; day 30,99.74%
same,character (visual inspection),[2]; day 30,off-white powder
same,hygroscopicity (visual inspection),[2]; day 30,(no hygroscopicity)
same,character (visual inspection),[3]; month 0,off-white
same,compound purity (HPLC),[3]; month 0,"99%,"
same,deuteration rate (HNMR),[3]; month 0,rate 99%
same,character (visual inspection),[3]; month 1,"off-white,"
same,compound purity (HPLC),[3]; month 1,"99%,"
same,deuteration rate (HNMR),[3]; month 1,rate 99%
same,hygroscopicity (visual inspection),[3]; month 1,no
same,character (visual inspection),[3]; month 2,"off white,"
same,compound purity (HPLC),[3]; month 2,"99%,"
same,deuteration rate (HNMR),[3]; month 2,rate 99%
same,hygroscopicity (visual inspection),[3]; month 2,no
same,character (visual inspection),[3]; month 3,"off white,"
same,compound purity (HPLC),[3]; month 3,"99%,"
same,deuteration rate (HNMR),[3]; month 3,rate 99%
same,hygroscopicity (visual inspection),[3]; month 3,no
same,character (visual inspection),[3]; month 4,"off white,"
same,compound purity (HPLC),[3]; month 4,"99%,"
same,deuteration rate (HNMR),[3]; month 4,rate 99%
same,hygroscopicity (visual inspection),[3]; month 4,no
same,character (visual inspection),[3]; month 6,"off white,"
same,compound purity (HPLC),[3]; month 6,"99%,"
same,deuteration rate (HNMR),[3]; month 6,rate 99%
same,hygroscopicity (visual inspection),[3]; month 6,no
same,crystal form (X-ray powder diffraction),"[4]; month 6, listed as crystal form of the compound represented by the formula (I) or the formula (II)",no crystal
same,crystal form (X-ray powder diffraction),"[4]; month 6, listed as crystal form of the present invention",maintained
C=CC(=O)Nc1cc(Nc2nccc(-c3cn(C)c4ccccc34)n2)c(OC)cc1N(C)CCN(C)C [compound of formula III],passage through the blood-brain barrier,[1],can enter the brain through the blood-brain barrier
